Source: ChEMBL document CHEMBL5360641, “4'-Ethynyl-2'-deoxy-2'-β-fluoro-2-fluoroadenosine: A Highly Potent and Orally Available Clinical Candidate for the Treatment of HIV-1 Infection” (J Med Chem, 2023)

Columns and labels:
[1] = Cytotoxicity against HEK293T cells assessed as reduction in cell viability by MTT assay; format: toxicity, cell-based, HEK-293T; conditions: human
[2] = system: Human immunodeficiency virus 1; assay: Antiviral activity against HIV1 VSV-G pseudotyped virus infected in human HEK293T cells assessed as inhibition of viral growth preincubated for 3 hrs followed by washout and further incubated with compound for 72 hrs by luciferase assay; format: functional, organism-based; conditions: Human immunodeficiency virus 1, HEK-293T
[3] = Selectivity index, ratio of CC50 for cytotoxicity against HEK293T cells assessed as reduction in cell viability by MTT assay to EC50 for antiviral activity against HIV1 VSV-G pseudotyped virus infected in human HEK293T cells assessed as inhibition of viral growth; format: toxicity, cell-based; conditions: read-out: Ratio CC50/EC50

COc1nc(N)c2ncn([C@@H]3O[C@@](CO)(N=[N+]=[N-])[C@@H](O)[C@@H]3F)c2n1
CC50 [1]: > 100000 nM | EC50 [2]: 4.46 nM | selectivity ratio [3]: > 22400
